Experimental data from US20250035641A1, “COMPOSITIONS AND METHODS RELATED TO PROTEIN LABELING” (The Chinese University of Hong Kong, priority 2023, published 2025).
Blank lines part the entries; values can stand above or below the compound they belong to.

Assays:
HTN-CK2α [1] = target: T1, HTN-CK2α (Homo sapiens, UniProt P68400); assay: Immunoblot of HTN-CK2α O-GlcNAcylation in HEK293T cells co-expressing fOGT; assay type: cell-based; conditions: co-treated with OGTAC-1
Text: Ck2α is a well-studied OGT substrate.^17,25 Its Ser347 is conservatively O-GlcNAcylated and this modification was reported to affect its kinase activity.^16,17 We first co-expressed HTN-Ck2α and fOGT in HEK293T cells at different ratio and found the basal O-GlcNAcylation level of HTN-Ck2α was higher than what we detected in the case of HTN-BRD4. Therefore, a lower ratio of fOGT expression (1:100) was selected for the assessment of OGTAC potency (FIG. 9). […] The induction of specific O-GlcNAcylation on HTN-Ck2α was further confirmed by mass-shift assay. […] To validate the direct binding to both fOGT and HTN-Ck2α is critical, we exploited AP 1867 and rhodamine ligand, which bind to fOGT and HTN-Ck2α respectively, to co-treat with OGTAC-1.
During immunoblotting study, we noticed that even for whole cell lysate (WCL), RL2 antibody band (green) and HTN-CK2α protein band (red) are perfectly overlapped and clearly distinguishable from other bands on blot (FIG. 6B). We assessed the OGTAC treatment effects by quantifying the RL2 signal that is overlapping with HTN-Ck2α in WCL, and found they are corresponding with the results achieved by IP-WB method (FIG. 6C). Therefore, we quantify the intensity of RL2 band that overlapping with HTN-CK2α level instead of IP CK2α in later study.
For each IP reaction, 2.2×10^6 HEK293T cells were seed in 10 cm dish. After cells attached, transfection reagents and plasmids were prepared and added in DMEM. After 24 h transfection, media were replaced by fresh warm complete media with DMSO or probes. For washout study, after 4 h treatment, media with DMSO or OGTAC-4 (500 nM) were replaced by fresh media with DMSO or AP1867 (50 μM) for further incubation. After certain time of OGTACs treatment, cells were collected by cold PBS and lysed by 200 μL complete IP lysis buffer. The lysate was incubated on ice for 20 min, spun down at 14,000 RPM at 4° C. for 15 mins, and the supernatant were collected for bicinchoninic acid (BCA) assay and normalized to a final 2 mg/mL. For input, 20 μL of diluted sample was reacted with equal volume of 10 μM TMR ligand in IP lysis buffer and rotate gently at RT for 15 mins. The remaining samples were subjected to protein A/G magnetic beads (MedChemExpress, HY-K0202), which pre-binding with protein target protein antibody. For samples for LC-MS/MS or HTN-BRD4 mutant constructs. Halo-Trap Magnetic Agarose (Proteintech, otma) was used to incubate with protein lysates. After gentle rotation at 4° C. for at least 16 h, the beads were washed with IP lysis buffer and boiled in 40 μL 2×SDS-loading buffer (Biorad #1610747) for 5 mins to elute proteins from beads. Eluted samples were directly subjected into WB analysis. To get stronger signal of RL2, we used anti-mouse-HRP (Cell signaling, #7076) as secondary antibody for RL2 and anti-rabbit-DyLight 488 (Invitrogen, #35552) as secondary antibody for total target proteins.
In general, cells (from 12 well plate) were lysed by 80 μl RIPA lysis buffer (Thermo Scientic 89901) supplemented with 20 μM OGA inhibitor (Thaimet G, Bidepharm BD571819) and 100X protease inhibitor (MedChemExpress, HY-K0010), incubated on ice for 20 min, spun down at 14,000 RPM at 4° C. for 15 mins, and the supernatant were collected for bicinchoninic acid (BCA) assay and normalizedeto a final 2 mg/mL concentration. About 30 μg of protein samples were loaded for sodium dodecyl sulfatepolyacrylamide gel electrophoresis (SDS-PADE) and blotted with indicated antibodies.
Target sequence in this assay (P68400 with tags, fused parts or gaps): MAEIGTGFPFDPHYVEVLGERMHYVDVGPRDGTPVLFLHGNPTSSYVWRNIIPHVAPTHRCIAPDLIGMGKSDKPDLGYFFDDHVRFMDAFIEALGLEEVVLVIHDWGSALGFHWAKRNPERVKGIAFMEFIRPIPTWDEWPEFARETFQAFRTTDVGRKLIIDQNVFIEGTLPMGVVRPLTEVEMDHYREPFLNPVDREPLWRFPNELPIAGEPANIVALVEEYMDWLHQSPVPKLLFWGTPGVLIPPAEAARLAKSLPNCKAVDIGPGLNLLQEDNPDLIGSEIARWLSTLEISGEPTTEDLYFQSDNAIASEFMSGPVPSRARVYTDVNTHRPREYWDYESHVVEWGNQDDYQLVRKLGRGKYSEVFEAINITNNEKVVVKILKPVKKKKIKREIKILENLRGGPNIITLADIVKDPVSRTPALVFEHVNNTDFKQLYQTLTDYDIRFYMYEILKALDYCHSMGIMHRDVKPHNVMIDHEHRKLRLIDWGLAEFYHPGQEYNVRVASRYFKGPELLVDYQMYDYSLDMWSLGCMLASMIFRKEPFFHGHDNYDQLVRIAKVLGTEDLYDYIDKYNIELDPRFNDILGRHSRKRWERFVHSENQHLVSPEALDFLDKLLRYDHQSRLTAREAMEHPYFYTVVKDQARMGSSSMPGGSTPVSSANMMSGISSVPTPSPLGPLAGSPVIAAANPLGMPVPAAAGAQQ
Target sequence in this assay (P62942+O15294 fused P62942:F37V partner): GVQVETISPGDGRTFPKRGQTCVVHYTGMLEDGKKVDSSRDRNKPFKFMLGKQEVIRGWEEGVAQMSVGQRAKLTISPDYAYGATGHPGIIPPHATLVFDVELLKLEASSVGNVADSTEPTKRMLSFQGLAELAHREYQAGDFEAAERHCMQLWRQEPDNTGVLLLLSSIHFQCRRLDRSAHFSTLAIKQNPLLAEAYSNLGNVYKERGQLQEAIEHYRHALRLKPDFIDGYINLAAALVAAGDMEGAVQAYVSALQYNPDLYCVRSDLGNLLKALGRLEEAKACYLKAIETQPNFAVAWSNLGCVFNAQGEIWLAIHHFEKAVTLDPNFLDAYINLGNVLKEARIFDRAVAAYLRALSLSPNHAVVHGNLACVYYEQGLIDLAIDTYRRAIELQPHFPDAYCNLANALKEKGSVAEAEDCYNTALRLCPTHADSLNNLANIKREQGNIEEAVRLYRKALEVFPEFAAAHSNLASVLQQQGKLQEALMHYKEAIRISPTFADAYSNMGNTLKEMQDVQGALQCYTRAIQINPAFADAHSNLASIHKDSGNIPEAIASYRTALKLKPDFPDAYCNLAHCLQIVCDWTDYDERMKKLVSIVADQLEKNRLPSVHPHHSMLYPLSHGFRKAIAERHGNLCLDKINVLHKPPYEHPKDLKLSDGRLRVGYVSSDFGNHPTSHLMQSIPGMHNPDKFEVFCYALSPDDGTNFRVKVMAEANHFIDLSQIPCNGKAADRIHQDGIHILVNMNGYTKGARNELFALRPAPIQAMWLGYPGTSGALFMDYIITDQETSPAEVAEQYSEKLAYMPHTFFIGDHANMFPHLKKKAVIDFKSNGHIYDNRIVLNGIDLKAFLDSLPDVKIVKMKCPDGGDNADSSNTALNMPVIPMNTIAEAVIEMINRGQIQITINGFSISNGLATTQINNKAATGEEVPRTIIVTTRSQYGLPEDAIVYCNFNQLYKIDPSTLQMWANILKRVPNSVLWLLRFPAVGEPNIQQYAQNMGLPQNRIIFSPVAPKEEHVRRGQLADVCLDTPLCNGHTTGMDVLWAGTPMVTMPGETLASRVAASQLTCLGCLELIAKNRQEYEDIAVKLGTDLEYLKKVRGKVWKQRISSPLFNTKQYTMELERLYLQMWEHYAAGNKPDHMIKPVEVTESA

HTN-BRD4 and 0tfOGT = target: T2, HTN-BRD4 and 0tfOGT (Homo sapiens, UniProt O60885+P62942, F37V); assay: Washout / reversibility study, HTN-BRD4:0tfOGT; assay type: cell-based; conditions: AP1867 50 μM after OGTAC-4 500 nM 4 h
T2 construct: HaloTag fragment; 0TPR(463-1046)-; expressed in transfected cells; host or cells: HEK293T
T2 sequence (P62942 whole entry F37V, stated change not applied, other chains not shown, the tested form may be a part): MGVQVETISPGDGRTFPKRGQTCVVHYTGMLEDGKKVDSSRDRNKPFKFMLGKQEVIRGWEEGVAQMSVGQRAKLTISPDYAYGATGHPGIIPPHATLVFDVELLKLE
Description: FIGS. 7A-7E: Specificity and reversibility of OGTAC strategy. […] (B), Constructs of fOGT with 13.5 (rounded to 13) TPR and 0TPR-fOGT (0tfOGT). (C). […] (D), Dose-dependent O-GlcNAcylation profile of HTN-BRD4 by OGTAC-4 treatment. HEK293T cells expressing HTN-BRD4:0tfOGT=1:0.05 were treated with an increasing concentration of OGTAC-4 for 4 h. Then, the O-GlcNAcylation level of HTN-BRD4 was assessed by immunoblot after IP using BRD4 antibody. All quantifications are shown as mean±s.e.m. of n=3 biologically independent experiments. (E), Reversible effect of OGTAC-4 on HTN-BRD4 can be achieved by addition of AP1867. HEK293T cells expressing HTN-BRD4:0tfOGT=1:0.05 were pretreated with OGTAC-4 (500 nM) or DMSO for 4 h, and culturing media were replaced by fresh media with DMSO or AP1867 (50 μM) for the indicated time. The quantifications in right panel were conducted by the normalizing the fold-change (OGTAC-4/DMSO) for each post-washout time point to the value of 4 h pre-treatment. All quantifications are shown as mean±s.e.m. of 3 independent biological repeats. Statistical significance was calculated with ordinary one-way ANOVA comparing samples with different transfection conditions or OGTAC-treatment. ns, p≥0.05; *p<0.05; **p<0.01; ***p<0.001; ****p<0.0001.
To assess the potential application of our OGTAC strategy in downstream biological studies, we investigated the reversibility of OGTACs. […] Additionally. the O-GlcNAc level of BRD4 returned to baseline after 6 hours of AP1867 treatment, confirming the reversibility of the induction effect (FIG. 7E).
For each IP reaction, 2.2×10^6 HEK293T cells were seed in 10 cm dish. After cells attached, transfection reagents and plasmids were prepared and added in DMEM. After 24 h transfection, media were replaced by fresh warm complete media with DMSO or probes. For washout study, after 4 h treatment, media with DMSO or OGTAC-4 (500 nM) were replaced by fresh media with DMSO or AP1867 (50 μM) for further incubation. After certain time of OGTACs treatment, cells were collected by cold PBS and lysed by 200 μL complete IP lysis buffer. […]

FKBP12^F36V = FKBP12^F36V (Homo sapiens, UniProt P62942, F37V); conditions: cited from earlier work
Sequence of FKBP12^F36V (P62942 whole entry F37V): as the sequence (P62942 whole entry F37V, stated change not applied, other chains not shown, the tested form may be a part) above

HTN-CK2α [2] = target: T1, HTN-CK2α; assay: O-GlcNAcylation of HTN-CK2α with 0tfOGT; assay type: cell-based; set-up: 0TPR(463-1046)-; expressed in transfected cells
Description: FIGS. 18A and 18B: Immunoblotting analysis of the global O-GlcNAcylation inducing effect of truncated OGTAC-4 and OGTAC-1 on HTN-BRD4 and HTN-CK2α respectively. (A), O-GlcNAcylation inducing effect of OGTAC-4 is dependent on the expression of 0tfOGT. […] The quantification was conducted by immunoblot signal of probe treatment/control as the mean±s.e.m. of n=2 biologically independent experiments. TR, transfection reagent.
Target sequence in this assay (P68400 with tags, fused parts or gaps): as the sequence (P68400 with tags, fused parts or gaps) above
Target sequence in this assay (P62942+O15294 fused P62942:F37V partner): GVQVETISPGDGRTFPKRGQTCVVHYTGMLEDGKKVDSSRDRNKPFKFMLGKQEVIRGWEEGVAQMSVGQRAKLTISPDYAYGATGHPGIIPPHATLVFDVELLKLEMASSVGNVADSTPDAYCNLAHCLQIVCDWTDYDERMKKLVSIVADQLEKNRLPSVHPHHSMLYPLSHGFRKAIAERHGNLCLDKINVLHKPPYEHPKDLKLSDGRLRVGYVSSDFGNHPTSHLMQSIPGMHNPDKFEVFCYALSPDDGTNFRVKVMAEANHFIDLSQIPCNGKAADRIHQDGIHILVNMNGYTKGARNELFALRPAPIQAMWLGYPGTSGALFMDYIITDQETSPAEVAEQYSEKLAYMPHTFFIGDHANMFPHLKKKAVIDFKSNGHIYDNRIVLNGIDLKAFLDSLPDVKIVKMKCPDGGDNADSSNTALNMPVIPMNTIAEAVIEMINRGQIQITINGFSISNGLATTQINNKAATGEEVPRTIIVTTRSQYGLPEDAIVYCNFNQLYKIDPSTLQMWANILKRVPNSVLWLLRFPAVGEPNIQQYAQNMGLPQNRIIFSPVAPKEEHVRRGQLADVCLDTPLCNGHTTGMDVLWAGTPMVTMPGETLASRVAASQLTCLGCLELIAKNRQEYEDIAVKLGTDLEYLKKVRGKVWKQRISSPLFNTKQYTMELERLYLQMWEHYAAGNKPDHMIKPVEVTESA

[3] = test system: HTN-BRD4 covalently linked to OGTAC-1

time for O-GlcNAc level of BRD4 to return to baseline (HTN-BRD4 and 0tfOGT): 6 h
time to marked decrease in ternary complex formation (HTN-BRD4 and 0tfOGT): ≤ 2 h
Compound: CC[C@H](C(=O)N1CCCC[C@H]1C(=O)O[C@H](CCc1ccc(OC)c(OC)c1)c1cccc(OCC(=O)O)c1)c1cc(OC)c(OC)c(OC)c1 [AP1867, 2-[3-[(1R)-3-(3,4-dimethoxyphenyl)-1-[(2S)-1-[(2S)-2-(3,4,5-trimethoxyphenyl)butanoyl]piperidine-2-carbonyl]oxy-propyl]phenoxy]acetic acid]
effect of competitor co-treatment on OGTAC-1 induced HTN-CK2α O-GlcNAcylation (HTN-CK2α [1]): abolished the O-GlcNAcylation inducing effects
Kd (FKBP12^F36V): 1.8 nM

recruitment of 0tfOGT to HTN-CK2α (HTN-CK2α [2]): unable to recruit 0tfOGT to HTN-CK2α
Compound: CCCCCCOCCOCCNC(=O)COc1cccc([C@@H](CCc2ccc(OC)c(OC)c2)OC(=O)[C@@H]2CCCCN2C(=O)[C@@H](CC)c2cc(OC)c(OC)c(OC)c2)c1 [OGTAC-1H, (R)-3-(3,4-dimethoxyphenyl)-1-(3-(2-((2-(2-(hexyloxy)ethoxy)ethyl)amino)-2-oxoethoxy)phenyl)propyl(S)-1-((S)-2-(3,4,5-trimethoxyphenyl)butanoyl)piperidine-2-carboxylate]

Compound: CN(C)c1ccc2c(-c3cc(C(=O)NCCOCCOCCCCCCCl)ccc3C(=O)[O-])c3ccc(=[N+](C)C)cc-3oc2c1 [rhodamine ligand, 4-((2-(2-((6-chlorohexyl)oxy)ethoxy)ethyl)carbamoyl)-2-(6-(dimethylamino)-3-(dimethyliminio)-3H-xanthen-9-yl)benzoate, reference compound]
effect of competitor co-treatment on OGTAC-1 induced HTN-CK2α O-GlcNAcylation (HTN-CK2α [1]): abolished the O-GlcNAcylation inducing effects

Compound: FKBP12^F36V fused-OGT
RL2 signal of BRD4 (O-GlcNAcylation of HTN-BRD4, IP-immunoblot) after 2 h of OGTAC-1 640 nM [3]: 2.5-fold increase at 2 h
RL2 signal of BRD4 (O-GlcNAcylation of HTN-BRD4, IP-immunoblot) after 4 h of OGTAC-1 640 nM [3]: further escalated to around 2.8-fold at 4 h
